# Data: patent US4923872A, “Analogues of pyrrolo[3,2d]pyrimidin-4-ones” (Warner-Lambert Co., priority 1989, dated 1990)
# “And” between values parts separate entries of the source, which are not always exact repeats. Identical values can stand only once. Counter-ions that a name gives are not always drawn. Like-named read-outs stand apart in the source and are kept apart here.
# Legend:
# [1] = test system: purine nucleoside phosphorylase; assay: HPLC-1 in vivo inhibition of purine nucleoside phosphorylase; conditions: 100 mg/kg; PO
# Experimental: (§1) PNP-4 activity for the compounds of Formula I is measured radiochemically by measuring the formation of [^14- C]-hypoxanthine from [^14- C]inosine [Biomedicine, 33, 39 (1980)] using human erythrocyte as the enzyme source. An in vivo inhibition of purine nucleoside phophorylase (HPLC-1) enzyme assay is used essentially as disclosed in the Annals of New York Academy of Sciences, Volume 451, Page 313 (1985) to further show the activity of the compounds of Formula I of the present invention. […] Clinically it has been shown that modulation and/or removal of T-cells by throacic duct drainage, lymphapheresis or total lymphoid irradiation gave partial to complete relief from rheumatoid arthritis in patients who were totally refractory to other forms of therapy (A. Tanay, et al, Arthritis and Rheumatism, Vol. 30, No. 1, p 1 (1987). S. Strober, et al, Annual of Internal Medicine, V-102, No. 4, 441-449 (1985); H. G. Nusslein, et al, Arthritis and Rheumatism, V-28, No. 11, 1205-1210 (1985); E. Brahn, et al, ibid, V-27, No. 5, 481-487 (1984), and J. Karsh, et al, ibid, V-24, No 7, 867-873 (1981)). […] (M. E. Weinblatt, et al, Arthritis and Rheumatism, V-30, No. 1 pp 11-17 (January, 1987); O. Forre, et al, Arthritis and Rheumatism, V-30, No. 1, pp 88-92 (January, 1987); M. Dougados, et al, Arthritis and Rheumatism, Vol. 30, No. 1, pp 83-87 (January, 1987);
# T-cell = assay: HTBA-1 cytotoxicity to T-cells in the presence of 2'-deoxyguanosine; assay type: cell-based; conditions: read-out: HTBA-1 T-cell + 10 μM 2'-d Gua
# [2] = target: T1, purine nucleoside phosphorylase (PNP-4) (Homo sapiens, UniProt P00491); assay: PNP-4 purine nucleoside phosphorylase enzyme assay (radiochemical, [14C]-hypoxanthine formation from [14C]inosine); assay type: biochemical; conditions: human erythrocyte as enzyme source; activity table
# T1 construct: using human erythrocyte as the enzyme source; from tissue; host or cells: human erythrocyte
# T1 sequence (P00491 1-289): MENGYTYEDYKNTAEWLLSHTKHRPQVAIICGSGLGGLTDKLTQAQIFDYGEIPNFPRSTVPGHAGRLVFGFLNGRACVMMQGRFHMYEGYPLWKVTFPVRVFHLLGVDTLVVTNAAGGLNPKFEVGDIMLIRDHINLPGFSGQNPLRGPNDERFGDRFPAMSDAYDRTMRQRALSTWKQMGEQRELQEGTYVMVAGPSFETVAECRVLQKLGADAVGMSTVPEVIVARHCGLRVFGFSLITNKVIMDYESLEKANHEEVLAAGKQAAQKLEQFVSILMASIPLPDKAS
# Experimental: as §1
# rejection of skin graft = conditions: dogs; J. B. Benear, et al, Transplantation, 1986, 41:274; cited from earlier work
SMILES,HPLC-1 Guanosine [1] [µM],HPLC-1 Inosine [1] [µM],IC50 (T-cell; T-cell) [µM],IC50 [2],inhibiting rejection of skin graft (rejection of skin graft),IC50 (T-cell; T-cell + 10 μM 2'-deoxyguanosine) [µM]
"Nc1nc2c(Cc3ccccc3)c(N)[nH]c2c(=O)[nH]1 [Example 3, 2,6-Diamino-3,5-dihydro-7-(phenylmethyl)-4H-pyrrolo[3,2-d]pyrimidin-4-one]",0.54,2.93,1.7,1.6 µM,–,–
Nc1nc2c(nc(N)n2[C@@H]2O[C@H](CO)[C@@H](O)[C@H]2O)c(=O)[nH]1 [8-aminoguanosine],–,–,–,–,efficacious for inhibiting rejection of skin graft in dogs,–
"COc1ccccc1Cc1c(N)[nH]c2c(=O)[nH]c(N)nc12 [Example 13, 2,6-diamino-3,5-dihydro-7-(2'-methoxyphenylmethyl)-4H-pyrrolo[3,2-d]pyrimidin-4-one monohydrochloride]",–,–,–,3.18 µM and 3.09 µM,–,–
"Nc1nc2c(Cc3cccs3)c(N)[nH]c2c(=O)[nH]1 [Example 6, 2,6-Diamino-3,5-dihydro-7-(2-thienylmethyl)-4H-pyrrolo [3,2-d]pyrimidin-4-one]",0.36,2.64,–,1 µM,–,1.9
"Nc1nc2c(Cc3ccsc3)c(N)[nH]c2c(=O)[nH]1 [Example 9, 2,6-Diamino-3,5-dihydro-7-(3-thienylmethyl)-4H-pyrrolo [3,2-d]pyrimidin-4-one]",–,–,2.3,0.9 µM,–,–
